Values after ≈ are worked out from the molar mass of the structure shown.
What was measured:
S. aureus ATCC 29213 = experiment: MIC assay; type: cell-based; settings: Staphylococcus aureus, ATCC29213; S. aureus ATCC 29213; read-out: Minimum inhibitory concentration
Text: (§1) Bacterial strains, growth conditions, and persister isolation. Methicillin-resistant S. aureus strains, MW2 BAA-1707, ATCC 33591, and JE2, methicillin-susceptible S. aureus strains, NCTC 8325, Newman, and ATCC 29213, vancomycin-resistant S. aureus strain, VRS1, Enterococcus faecium E007, vancomycin-resistant E. faecium strains, C68,^7 WB312, and WC196, Klebsiella pneumoniae WGLW2 (BEI Resources, Manassas, Va., USA), Acinetobacter baumannii ATCC 17978, Pseudomonas aeruginosa PA14, and Enterobacter aerogenes ATCC 13048 were used to test antimicrobial activity (Table 1). S. aureus strains were grown in tryptic soy broth (TSB) (BD, Franklin Lakes, N.J., USA), and E. faecium was grown in brain-heart infusion (BHI) broth (BD, Franklin Lakes, N.J., USA) at 37° C. K. pneumoniae, A. baumannii, P. aeruginosa, and E. aerogenes were grown in Luria Bertani (LB) broth (BD, Franklin Lakes, N.J., USA) at 37° C.
(§2) Minimal inhibitory concentration (MIC) assay. The MICS of antibiotics were determined by the standard micro-dilution method recommended by the Clinical and Laboratory Standards Institute. MIC assays were conducted in biological triplicate.

S. aureus VRS1 = experiment: MIC assay; type: cell-based; settings: Staphylococcus aureus; S. aureus VRS1; read-out: Minimum inhibitory concentration
Text: as §1, §2

E. aerogenes ATCC 13048 = experiment: MIC assay; type: cell-based, Enterobacter aerogenes; settings: Klebsiella aerogenes, ATCC13048; E. aerogenes ATCC 13048; read-out: Minimum inhibitory concentration
Text: as §1, §2

[1] = test system: MRSA-infected C. elegans glp-4(bn2);sek-1(km4); experiment: C. elegans-MRSA liquid killing assay; type: in vivo
Experimental: C. elegans-MRSA liquid killing assay. The C. elegans-MRSA infection assay was conducted as described in a previous study. Briefly, a black, clear-bottom 384-well plate (Corning no. 3712) was filled with 20 μL M9 buffer including the desired concentrations of nTZDpa, 1% DMSO (negative control), or 10 μg/mL vancomycin (positive control). After adding 15 young adult C. elegans glp-4(bn2);sek-1(km4) animals to the wells using a COPAS large particle sorter (Union Biometrica, Mass., USA), 35 μL of MRSA MW2 suspension was added (OD600 0.08). The assay plate was sealed with a gas-permeable membrane (Breathe-Easy, Diversified Biotech, Dedham, Mass., USA), and then incubated in a humidified chamber at 25° C. for 5 days. After washing the plate 8-times with M9 buffer using a microplate washer (BioTek EL×405, BioTek, Vt., USA), worms were stained with 0.7 μM SYTOX Orange. To evaluate worm survivability, the worms were imaged using an Image Xpress Micro automated microscope (Molecular Devices), capturing both transmitted light and TRITC (535 nm excitation, 610 nm emission) fluorescent images with a 2× objective. Only dead worms stain with SYTOX Orange. The assay was conducted in biological triplicate.

HKC-8 = experiment: Cytotoxicity (WST-1); type: cell-based; settings: 32 μg/ml
Experimental: (§3) Cytotoxicity. […] HepG2 and HKC-8 cells were grown in Dulbecco's modified Eagle F-12 media mixed 1:1 with Ham's F-12 (DMEM/F-12, Life Technologies, Carlsbad, Calif., USA) supplemented with 10% FBS and 4 mM L-glutamine at 37° C. in 5% CO2. For cytotoxicity assays, HepG2 or HKC-8 was cultured in 96-well plates in 100 μL/well of the proper media to reach 70-80% confluence. The cells were then treated with a range of concentrations of nTZDpa or its analogs for 72 h. 10 μL of WST-1 (Roche, Mannheim, Germany) was added per well for the last 4 h of the 72 h period. WST-1 reduction was measured at absorbance 450 nm. The percent […] relative to that of the no-treatment control was calculated. The assay was carried out in biological triplicate.

HepG2 = experiment: Cytotoxicity (WST-1); type: cell-based; settings: 32 μg/ml
Experimental: as §3

[2] = test system: vancomycin-resistant Enterococcus faecium strains; experiment: MIC against vancomycin-resistant strains; type: cell-based
Text: as §1, §2

[3] = Hepatic and renal toxicities (serum ALT, BUN) in the mouse thigh infection model; settings: 5 days
Experimental: Deep-seated mouse thigh infection model. In vivo efficacy of nTZDpa alone or in combination with gentamicin against MRSA persisters was evaluated by a previously described neutropenic mouse thigh infection model with modifications. Six-week-old female CD-I mice (20-25 g, Charles River Laboratories, Wilmington, Mass., USA) were obtained from Charles River Laboratories (Wilmington, Mass., USA). The CD-I mice were rendered neutropenic by administering 150 mg/kg and 100 mg/kg of cyclophosphamide intraperitoneally (i.p.) at 4 days and 1 day before infection, respectively. On the day of infection, overnight culture of MRSA MVV2 was washed 3-time with sterile saline and diluted to 10^7 CFU/ml in the saline. 50 μl of the diluted culture (5×10^5 CFU per mouse) was injected to the right thigh of each mouse. nTZDpa was dissolved in Kolliphor EL (Sigma-Aldrich, St Louis, Mo., USA)/ethanol 1:1 and then diluted 1:10 in saline to a final concentration of 50 mg/kg. At 24 h post-infection, groups of mice (n=10) were treated with 30 mg/kg gentamicin subcutaneously (s.c.) every 12 h, 25 mg/kg vancomycin i.p. every 24 h, 50 mg/kg nTZPpa i.p. every 24 h, or the combination of 50 mg/kg nTZDpa i.p. every 24 h and 30 mg/kg gentamicin s.c. every 12 h for 5 days. Control mice were injected with 250 μl of 10% Kolliphor EL/ethanol in saline i.p. every 24 h for 5 days. Mice were euthanized at 96 h post-infection. Blood was collected by cardiac puncture, and the infected thighs were aseptically excised, weighed, and stored at 4° C. until homogenization. To evaluate hepatic and renal toxicities, the levels of alanine aminotransferase and blood urea nitrogen were analyzed with commercially available kits, following the manufacturer's protocol (Pointe Scientific, Canton, Mich., USA). Thighs were homogenized in PBS, serially diluted with PBS, and spot-plated on TSA plates. After incubating the TSA plates at 37° C. overnight, the number of colonies were enumerated to calculate CFU/g thigh tissue. This study and all experiments were performed in accordance with guidelines approved by the Rhode Island Hospital Institutional Animal Care and Use Committee (RIH IACUC). Statistical significance among each group was analyzed by one-way ANOVA with post-hoc Tukey test using PASW Statistics 18 (SPSS Inc. Chicago, Ill., USA).

[4] = nTZDpa 50 mg/kg with gentamicin 30 mg/kg

For `O=C(O)c1c(Sc2ccccc2)c2cc(Cl)ccc2n1Cc1ccc(Cl)cc1` [nTZDpa], the MIC (S. aureus ATCC 29213) was 4 µg/mL (≈ 9.34 µM), the MIC (S. aureus VRS1) was 4 µg/mL (≈ 9.34 µM) and the MIC (E. aerogenes ATCC 13048) was > 64 µg/mL. The “C. elegans rescued from MRSA-mediated lethality” value ([1]; 2 μg/ml to 16 μg/ml) was ~90%, the EC50 ([1]; Caenorhabditis elegans, 120 h, read-out: EC50 (median effective concentration), C. elegans survival) was ~0.6 µg/mL (≈ 1.4 µM) and the “EC50 relative to EC50 of vancomycin” value ([1]; fold higher) was 2 fold. For the same compound, the “cell death of HKC-8” value (HKC-8) was ~16%, the “cell death of HepG2” value (HepG2) was ~30% and the MIC [2] was 4 µg/mL (≈ 9.34 µM). The BUN [3, 4] was “not increasing ALT or BUN”, the “serum ALT” value [3, 4] was “not increasing ALT or BUN” and the BUN ([3]; nTZDpa alone 50 mg/kg i.p.) was “did not increase serum levels of ALT or BUN”. The “serum ALT” value ([3]; nTZDpa alone 50 mg/kg i.p.) was “did not increase serum levels of ALT or BUN”.

Source: patent publication US11690824B2, “Antibacterial compounds” (THE GENERAL HOSPITAL CORPORATION, priority 2018, dated 2023)
